In PubChem BioAssay (NCI):
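Cultured in 96-well plates, cells were exposed to test compound for 48 hours across five concentrations. GI50: concentration for 50% inhibition of growth. TGI denotes the concentration required for complete inhibition of growth.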 Where a SMILES comes first, the peptide text is derived from it. [ ]: non-standard residue; d: D form. The star is where a group is joined. ξ: configuration not given here. X28 = COC1=CC(=O)N(C(=O)[C@@H](O*)C(C)C)[C@H]1Cc1ccccc1; X37 = O=C(OCc1ccccc1)[C@@H]1CCC[C@H]1N*; Fmoc = O=C(OCC1c2ccccc2-c2ccccc21)*; ξW = NC(Cc1c[nH]c2ccccc12)C(=O)O; NMeL = CN[C@@H](CC(C)C)C(=O)O; ξF = NC(Cc1ccccc1)C(=O)O; Hexanoyl = CCCCCC(=O)*; Boc = CC(C)(C)OC(=O)*; ξK = NCCCCC(N)C(=O)O; ξT = CC(O)C(N)C(=O)O; tBu = CC(C)(C)*

Experiments:
Test in all cases: NCI tumour cell line growth inhibition, 48 h
786-0 renal = test system: 786-0 renal
HCT-116 colon = test system: HCT-116 colon
SNB-75 CNS = test system: SNB-75 CNS
SW-620 colon = test system: SW-620 colon
K-562 leukemia = test system: K-562 leukemia
NCI-H460 lung = test system: NCI-H460 lung
SR leukemia = test system: SR leukemia
A498 renal = test system: A498 renal
COLO 205 colon = test system: COLO 205 colon
T-47D breast = test system: T-47D breast
MCF7 breast = test system: MCF7 breast

Compound	TGI (786-0 renal) [µM]	TGI (HCT-116 colon) [µM]	TGI (SNB-75 CNS) [µM]	TGI (SW-620 colon) [µM]	TGI (K-562 leukemia) [µM]	TGI (NCI-H460 lung) [µM]	TGI (SR leukemia) [µM]	TGI (A498 renal) [µM]	TGI (COLO 205 colon) [µM]	TGI (T-47D breast) [µM]	TGI (MCF7 breast) [µM]	GI50 (SNB-75 CNS) [nM]	GI50 (MCF7 breast) [nM]	GI50 (K-562 leukemia) [nM]	GI50 (NCI-H460 lung) [nM]	GI50 (A498 renal) [nM]
N#Cc1nn(-c2ccc(Cl)cc2)c(N)c2c(=N)n3nc(-c4ccccc4)cc3nc12	> 100	> 100	> 68.4	> 100	> 100	> 92.3	10.7	> 56.7	–	–	–	–	–	–	–	–
CCOC(=O)c1c(OCC)[nH]c(=O)c(C(c2ccc(F)cc2)c2c(O)c(C(=O)OCC)c(OCC)[nH]c2=O)c1O	39.7	> 100	–	51.1	50.8	36.5	29	26.2	79.8	32.7	60.7	–	–	–	–	–
Fc1ccc(C(=NCc2ccccc2)N2CCOCC2)cc1	> 100	> 100	> 100	> 100	> 100	> 100	> 100	> 100	> 100	–	> 100	–	–	–	–	–
c1ccc(/C(=N/Nc2cnccn2)c2ncccn2)cc1	> 100	> 100	> 100	> 100	> 100	> 100	> 100	–	> 100	–	> 100	–	–	–	–	–
O=C(O)CCCN1CCCCC1	> 100	> 100	> 100	> 100	> 100	> 100	> 100	> 100	–	> 100	–	–	–	–	–	–
O=c1[nH]c2ccc(CC(=S)N3CCN(c4ccccc4)CC3)cc2s1	> 100	> 100	–	> 100	> 100	56.1	> 100	> 100	> 100	–	> 100	–	–	–	–	–
CCOC(=O)Cc1csc(/N=C\c2c(O)c3ccccc3oc2=O)n1	> 100	> 100	56.7	> 100	–	> 100	52	–	> 100	–	> 100	–	–	–	–	–
COC(=O)CCCc1ccc2c(c1)CCC2	> 100	> 100	> 100	> 100	–	> 100	> 100	–	> 100	> 100	> 100	–	–	–	–	–
COC(=O)CSc1[nH]c2nc(C)nc(Nc3ccccc3)c2c1C#N	> 10	–	> 10	> 10	> 10	–	> 10	–	> 10	> 10	> 10	–	–	–	–	–
CC1OC(OP(=O)(OCc2ccccc2)OCc2ccccc2)C(OC(=O)c2ccccc2)C(OC(=O)c2ccccc2)C1I (configuration not stated)	> 100	> 100	68.1	> 100	> 100	> 100	80.7	–	84.8	–	–	–	–	–	–	–
O=C(/C=C1\N=C(c2ccccc2)N(c2ccc3c(c2)Sc2cc(N4C(=O)/C(=C/C(=O)/C=C/c5ccccc5)N=C4c4ccccc4)ccc2N3)C1=O)/C=C/c1ccccc1	> 100	> 100	45.6	> 100	> 100	> 100	–	67.8	> 100	> 100	56.1	–	–	–	–	–
N#CC(C(=O)c1ccccc1F)c1nc2cc(C(F)(F)F)ccc2s1 (configuration not stated)	60.5	41.9	> 100	82.4	–	> 100	–	45.8	49.5	> 100	–	–	–	–	–	–
CCOC(=O)Nc1ccc(S(=O)(=O)Nc2ccc(Br)cc2)cc1	> 100	> 100	–	> 100	34.4	72	50.4	48.4	30.4	> 100	75.7	–	–	–	–	–
Cc1c(Cl)cccc1NC(=O)C(=O)C1C(=O)NC(=O)NC1=O	> 100	> 100	> 100	> 100	> 100	> 100	> 100	> 100	> 100	–	–	–	–	–	–	–
CC(=O)C1=CC=C/C1=N\Nc1ccccc1	15.4	17.5	24.6	15.6	20.5	38.7	4.95	–	22.9	18.3	5.68	–	–	–	–	–
COc1ccc(N=NN2CCCC2)cc1	32.7	38.6	–	81.4	> 100	> 100	> 100	> 100	35.5	49.2	78	–	–	–	–	–
NC(=O)c1cc2ccccc2c(N=Nc2ccccc2)c1O	> 100	> 100	> 100	> 100	> 100	–	> 100	> 100	> 100	> 100	–	–	–	–	–	–
COc1cc(-c2ccc(-c3ccc(C(=N)N)s3)s2)cc(OC)c1OC	–	–	2.93	–	3.41	3.64	–	5.83	–	–	4.32	1500	1660	1110	1990	2250
N=C(/C=C/c1ccc(-c2cn3cc(/C=C/C(=N)N4CCOCC4)ccc3n2)cc1)N1CCOCC1	> 100	> 100	> 100	> 100	> 100	> 100	–	> 100	> 100	> 100	> 100	–	–	–	–	–
CCC(=O)O[C@@H]1C2C(OC(C)=O)C34COC(C)([C@@H]3C3C(C[C@]3(C)OC(C)=O)[C@@H](OC(=O)c3ccccc3)C4=O)[C@H](OC(C)=O)[C@@]2(OC(C)=O)C[C@@H]1C (some centres not stated)	29.2	> 100	12.4	> 100	–	> 100	> 100	–	> 100	–	–	–	–	–	–	–
CCCCCCCCCCCCCC(=O)OCC1OC(OC)C(NC(=O)N(CCCl)N=O)C(O)C1O (configuration not stated)	17	38.2	73.5	30.9	56.8	25.1	26.7	65.6	98.5	–	–	–	–	–	–	–
CC(C)(C)NCC(O)COc1cccc2[nH]c(C#N)cc12 (configuration not stated)	> 100	> 100	–	> 100	–	–	> 100	> 100	> 100	> 100	> 100	–	–	–	–	–

Compound	TGI (786-0 renal) [µM]	TGI (HCT-116 colon) [µM]	TGI (SNB-75 CNS) [µM]	TGI (SW-620 colon) [µM]	TGI (K-562 leukemia) [µM]	TGI (NCI-H460 lung) [µM]	TGI (SR leukemia) [µM]	TGI (A498 renal) [µM]	TGI (COLO 205 colon) [µM]	TGI (T-47D breast) [µM]	TGI (MCF7 breast) [µM]	GI50 (SNB-75 CNS) [nM]	GI50 (MCF7 breast) [nM]	GI50 (K-562 leukemia) [nM]	GI50 (NCI-H460 lung) [nM]	GI50 (A498 renal) [nM]
O=Cc1cc(O)c(O)c(O)c1-c1c(C=O)cc(O)c(O)c1O	> 100	> 100	> 100	> 100	> 100	> 100	> 100	> 100	> 100	–	–	–	–	–	–	–
C[C@H](NC(=O)OC1C2C=CC(O)C1CC2)c1ccccc1 (some centres not stated)	> 100	> 100	> 100	–	> 100	> 100	46.2	> 100	> 100	–	–	–	–	–	–	–
CC(=O)OC(C)(C)C1CCC(C)(C(O)COc2ccc(CCNC(=O)c3ccccc3)cc2)O1 (configuration not stated)	> 100	> 100	> 100	> 100	–	> 100	> 100	–	> 100	–	–	–	–	–	–	–
CC1(C)COC(c2cccc(C3=NC(C)(C)CO3)c2)=N1	> 100	> 100	–	> 100	> 100	> 100	> 100	–	> 100	> 100	> 100	–	–	–	–	–
Cc1cc2nc3c(C#N)c(-c4ccccc4)/c(=C\Nc4cccc(C(F)(F)F)c4)c(=O)n3c2cc1C	> 100	> 100	> 100	> 100	–	> 100	–	> 100	> 100	> 100	> 100	–	–	–	–	–
COc1cccc(-n2nnc3c(N)nc(N)nc32)c1	> 100	> 100	> 100	> 100	> 100	> 100	–	> 100	> 100	> 100	> 100	–	–	–	–	–
CC(=O)OC1COC(N2C(=O)C(=O)c3cc(Br)c([N+](=O)[O-])cc32)C(OC(C)=O)C1OC(C)=O (configuration not stated)	> 100	> 100	81.4	> 100	72.4	> 100	> 100	–	> 100	–	–	–	–	–	–	–
CCOC(=O)[C@H]1Nc2ccc(O)cc2C2c3ccccc3CC21 (some centres not stated)	> 100	> 100	> 100	> 100	> 100	> 100	–	> 100	> 100	–	–	–	–	–	–	–
CCCCc1ccc(N2C(=O)c3cc(C)cnc3S2(=O)=O)cc1	> 100	> 100	> 100	> 100	> 100	> 100	> 100	–	> 100	> 100	> 100	–	–	–	–	–
OC(Cn1cncn1)(Cn1cncn1)c1ccc(Cl)cc1Cl	> 100	> 100	> 100	> 100	> 100	> 100	> 100	> 100	> 100	–	–	–	–	–	–	–
CCOC(=O)/C(O)=C(\C=N\C(=S)Nc1ccc(Cl)c(Cl)c1)C(=O)OCC	> 100	> 100	> 100	> 100	–	> 100	> 100	–	> 100	–	> 100	–	–	–	–	–
CC(=O)OCc1ccc(-c2nc(C#N)c(N)o2)o1	> 10	> 10	> 10	> 10	> 10	> 10	> 10	–	> 10	> 10	> 10	–	–	–	–	–
CC1(C)OC1CC/C(=C/CBr)CBr (configuration not stated)	28.7	33	21	28.7	49	29	64.6	47.9	29.4	–	28.5	–	–	–	–	–
CC(OC(C)(C)C)C(NC(=O)C(CCCCNC(=O)OC(C)(C)C)NC(=O)C(Cc1c[nH]c2ccccc12)NC(=O)C(Cc1ccccc1)NC(=O)OCC1c2ccccc2-c2ccccc21)C(=O)NC(Cc1ccccc1)C(=O)N[C@@H]1CCC[C@H]1C(=O)OCc1ccccc1 (some centres not stated) (Fmoc-[ξF][ξW][ξK](Boc)[ξT](tBu)[ξF]-X37)	> 100	> 100	> 100	> 100	> 100	> 100	> 100	–	> 100	> 100	> 100	–	–	–	–	–
Cn1cc(C(=O)C2CCCCC2)ccc1=O	> 100	> 100	> 100	> 100	> 100	> 100	> 100	–	> 100	–	–	–	–	–	–	–
CC(=O)NC1C(OCC(=O)NC(C)C(=O)NC(CCC(=O)NCCCCCNc2ccc([N+](=O)[O-])c3[nH]c4ccccc4c(=O)c23)C(N)=O)C(O)C(CO)OC1(C)OCc1ccccc1 (configuration not stated)	> 50	> 50	> 50	> 50	> 50	> 50	–	> 50	> 50	> 50	> 50	–	–	–	–	–
CCC1OC2C(CC=C(C)C)=C3OC(C)(O)C(C)(CC)C(O)C3=C3OC(=O)C=C1C32 (configuration not stated)	> 100	> 100	–	> 100	> 100	70.5	–	> 100	> 100	> 100	> 100	–	–	–	–	–
C[Si](C)(C)C#C[I+]c1ccccc1	> 100	56.6	> 100	–	> 100	> 100	–	> 100	32.9	–	–	–	–	–	–	–
Nc1nc(Cl)cc(NCC2(CO)CC(CCCCc3ccccc3)C2)n1 (configuration not stated)	> 100	> 100	> 100	> 100	> 100	> 100	> 100	> 100	> 100	–	> 100	–	–	–	–	–
CCCCCC(=O)N[C@H](C(=O)N[C@H](C(=O)N(C)[C@@H](CC(C)C)C(=O)N1CCC[C@H]1C(=O)N1CCC[C@H]1C(=O)O[C@H](C(=O)N1C(=O)C=C(OC)[C@@H]1Cc1ccccc1)C(C)C)C(C)C)C(C)C (Hexanoyl-VV[NMeL]PP-X28)	> 100	> 100	70.8	> 100	> 100	> 100	–	> 100	> 100	> 100	> 100	–	–	–	–	–
C#CCNC(Cc1ccccc1)C(=O)O (configuration not stated)	> 100	> 100	> 100	> 100	> 100	> 100	> 100	> 100	> 100	> 100	–	–	–	–	–	–
